# Measured values reported in patent publication US7297523B2, “Human elongase genes and uses thereof” (Xenon Pharmaceuticals Inc., priority 2000, dated 2007).
# What was measured:
# [1] = system: D6D; assay: D6D activity in liver microsomes from STZ-induced diabetic rats; assay type: in vivo, rat; details: compared to control
# Method: (§1) The desaturase and elongase enzyme activities in liver microsomes from streptozotocin (STZ)-induced diabetic rats was assayed at 2 and 7 weeks post-induction. Table 1 indicates the decrease in activities compared to a control, observed during the course of the experiment. An equivalent decrease in elongation activity in STZ-induced diabetic rats has been previously reported (Suneja et al., 1990, Biochim. Biophys. Acta, 1042: 81-85).
# [2] = system: Elongase; assay: Elongase activity in liver microsomes from STZ-induced diabetic rats; assay type: in vivo, rat; details: compared to control
# Method: as §1
# [3] = system: D5D; assay: D5D activity in liver microsomes from STZ-induced diabetic rats; assay type: in vivo, rat; details: compared to control
# Method: as §1
# [4] = system: Leukocytes; assay: Conversion of 18:3n-6 into 20:3n-6 in leukocytes from STZ-induced diabetic rats; assay type: in vivo, rat
# [5] = system: Leukocytes; assay: Conversion of 18:2n-6 into 20:2n-6 in leukocytes from STZ-induced diabetic rats; assay type: in vivo, rat; details: for Conversion of 18:2n-6 into 20:2n-6: leukocytes incubated for 24 h, mean ± S.D. of 6 rats
# [6] = system: 18:3n-6; assay: Elongation of [1-14C]18:3n-6 in yeast expressing human elongases (RP-HPLC); details: for Percent Elongation of 18:3n-6 to 20:3: product 20:3n-6; for Percent Elongation of 18:3n-6 to 22:3: product 22:3n-6
# Description: (§2) For the expression of ELG1, ELG2, ELG3, ELG4, ELG5, ELG6 or ELG7 the yeast were transformed with pTh1009.1, pTh1014.1, pTh1015.1, pTh1021.1, pTh1018.1, pTh1041.1 or pTh1044.1, respectively. For the expression of ELG1/V5-His, ELG2/V5-His, ELG3/V5-His, ELG4/V5-His, ELG5/V5-His, ELG6/V5 -His or ELG7/V5-His the yeast were transformed with pTh1009.2, pTh1014.2, pTh1017.1, pTh1021.2, pTh1019.1, pTh1042.1 or pTh1045.1, respectively. Recombinant yeast cells were selected on SC-U medium.
# (§3) Transformed yeast (approximately 3.2×10^6 cells/ml; O.D.600 0.4) were incubated in a 125 ml Erlenmeyer containing 10 ml of SC-U medium with 1% raffinose, 1% tergitol and 25 μM of the lithium salts of either [1-^14C]18:3n-3 (1 μCi), [1-^14C]18:3n-6 (1 μCi), [1-^14C]20:4n-6 (2 μCi), or [1-^14C]20:5n-3 (2 μCi). After 4 h incubation in an orbital incubator at 270 rpm and 30° C., cells reached the log phase and the transgene, expression was induced with galactose 30° C., cells reached the log phase and the transgene expression was induced with galactose (2% final concentration). The yeast were incubated for an additional 19 h and then harvested by centrifugation at 5000×g for 10 minutes at 4° C.
# (§4) Cells were washed with Tris-HCl buffer (100 mM, pH 8.0) containing 0.1% BSA and total lipids were extracted as described below. The radioactivity from aliquots of the incubation medium, supernatant and cells was determined by liquid scintillation counting using a LS6500-Scintillation System (Beckman).
# (§5) Alternatively, cells were resuspended in 1.5 ml of water and saponified with 2 ml of 10% KOH in ethanol. The total lipid extracts or the free fatty acids from the saponified samples were methylated using boron trifluoride in methanol at 90° C. for 30 min. The resultant methyl esters (FAME) were analyzed as described below.
# (§6) Analyses of radiolabelled FAME were carried out on a Hewlett Packard 1090, series II chromatograph equipped with a diode array detector set at 205 nm, a radioisotope detector (model 171, Beckman, CA) with a solid scintillation cartridge (97% efficiency for ^14C-detection) and a reverse phase ODS (C-18) Beckman column (250 mm×4.6 mm i.d.; 5 μm particle size) attached to a pre-column with a μBondapak C-18 (Beckman) insert. FAME were separated isocratically with acetonitrile/water (95.5 v/v) at a flow rate of 1 ml/min and were identified by comparison with authentic standards. Alternatively, the eluted FAME were collected and the solvent evaporated. FAME were re-dissolved in hexane for further analysis by gas chromatography.
# [7] = system: 20:4n-6; assay: Elongation of [1-14C]20:4n-6 in yeast expressing human elongases (RP-HPLC); details: untagged elongase, 25 μM substrate
# Description: as §2, §3, §4, §5, §6
# [8] = system: 18:3n-3; assay: Elongation of [1-14C]18:3n-3 in yeast expressing human elongases (RP-HPLC); details: untagged elongase; 25 μM substrate; product 20:3n-3
# Description: as §2, §3, §4, §5, §6
# [9] = system: 20:5n-3; assay: Elongation of [1-14C]20:5n-3 in yeast expressing human elongases (RP-HPLC); details: untagged elongase; 25 μM substrate; product 22:5n-3
# Description: as §2, §3, §4
# Alternatively, cells were resuspended in 1.5 ml of water and saponified with 2 ml of 10% KOH in ethanol. The total lipid extracts or the free fatty acids from the saponified samples were methylated using boron trifluoride in methanol at 90° C. for 30 min. The resultant methyl esters (FAME) were analyzed as described below. […]
# [10] = untagged elongase, 25 μM substrate
molecule,measurement,setting,value
"CN(N=O)C(=O)N[C@H]1C(O)O[C@H](CO)[C@@H](O)[C@@H]1O (stereo partly drawn) [STZ, 2-desoxy-2-methylnitrosoamino carbonyl amino-D-glucopyranose]",% Decrease of D6D activity (18:2n-6 → 18:3n-6),[1]; 2 weeks post-induction,28%
same,% Decrease of D6D activity (18:2n-6 → 18:3n-6),[1]; 7 weeks post-induction,33%
same,% Decrease of Elongase activity (18:3n-6 → 20:3n-6),[2]; 2 weeks post-induction,46%
same,% Decrease of Elongase activity (18:3n-6 → 20:3n-6),[2]; 7 weeks post-induction,43%
same,% Decrease of D5D activity (20:3n-6 → 20:4n-6),[3]; 2 weeks post-induction,33%
same,% Decrease of D5D activity (20:3n-6 → 20:4n-6),[3]; 7 weeks post-induction,41%
same,Conversion of 18:3n-6 into 20:3n-6,"[4]; 2 weeks post-induction, incubation time 0 h",0 pmol of 20:3n-6 produced/mg cellular protein
same,Conversion of 18:3n-6 into 20:3n-6,"[4]; 2 weeks post-induction, incubation time 0.16 h, mean ± S.D. of 6 rats",50 ± 8 pmol of 20:3n-6 produced/mg cellular protein
same,Conversion of 18:3n-6 into 20:3n-6,"[4]; 2 weeks post-induction, incubation time 0.5 h, mean ± S.D. of 6 rats",115 ± 26 pmol of 20:3n-6 produced/mg cellular protein
same,Conversion of 18:3n-6 into 20:3n-6,"[4]; 2 weeks post-induction, incubation time 1 h, mean ± S.D. of 6 rats",288 ± 23 pmol of 20:3n-6 produced/mg cellular protein
same,Conversion of 18:3n-6 into 20:3n-6,"[4]; 7 weeks post-induction, incubation time 0 h",0 pmol of 20:3n-6 produced/mg cellular protein
same,Conversion of 18:3n-6 into 20:3n-6,"[4]; 7 weeks post-induction, incubation time 0.16 h, mean ± S.D. of 6 rats",37 ± 9 pmol of 20:3n-6 produced/mg cellular protein
same,Conversion of 18:3n-6 into 20:3n-6,"[4]; 7 weeks post-induction, incubation time 0.5 h, mean ± S.D. of 6 rats",112 ± 10 pmol of 20:3n-6 produced/mg cellular protein
same,Conversion of 18:3n-6 into 20:3n-6,"[4]; 7 weeks post-induction, incubation time 1 h, mean ± S.D. of 6 rats",190 ± 92 pmol of 20:3n-6 produced/mg cellular protein
same,Conversion of 18:3n-6 into 20:3n-6,"[4]; 7 weeks post-induction, incubation time 24 h, mean ± S.D. of 6 rats",1008 ± 98 pmol of 20:3n-6 produced/mg cellular protein
same,activity of the elongation system (18:3n-6 into 20:3n-6),"[4]; STZ group versus control, regardless of the time after the last I.P. STZ injection",significant increase
same,Conversion of 18:2n-6 into 20:2n-6,[5]; 2 weeks post-induction,322 ± 119 pmol of 20:2n-6 produced/mg cellular protein
same,Conversion of 18:2n-6 into 20:2n-6,[5]; 7 weeks post-induction,147 ± 22 pmol of 20:2n-6 produced/mg cellular protein
same,changes in the elongation of 18:2n-6 to 20:2n-6,[5]; leukocytes from animals sacrificed 7 weeks after the STZ treatment,no significant changes
same,reduction in the elongation of 18:2n-6 to 20:2n-6,[5]; leukocytes obtained 2 weeks after the STZ injection,approximately 50%
"ELG2: human PUFA elongase expressed in yeast from plasmid pTh1014.1 (protein, UniProt Q9NYP7 1-299, looked up) Very long chain fatty acid …: MEHFDASLSTYFKALLGPRDTRVKGWFLLDNYIPTFICSVIYLLIVWLGPKYMRNKQPFSCRGILVVYNLGLTLLSLYMFCELVTGVWEGKYNFFCQGTRTAGESDMKIIRVLWWYYFSKLIEFMDTFFFILRKNNHQITVLHVYHHASMLNIWWFVMNWVPCGHSYFGATLNSFIHVLMYSYYGLSSVPSMRPYLWWKKYITQGQLLQFVLTIIQTSCGVIWPCTFPLGWLYFQIGYMISLIALFTNFYIQTYNKKGASRRKDHLKDHQNGSMAAVNGHTNSFSPLENNVKPRKLRKD",Percent Elongation of 18:3n-6 to 20:3,[6]; V5-His tagged elongase,73%
same,Percent Elongation of 18:3n-6 to 22:3,[6]; V5-His tagged elongase,11%
same,Percent Elongation of 18:3n-6 to 20:3,[6]; [10],62%
same,Percent Elongation of 18:3n-6 to 22:3,[6]; [10],3%
same,Percent Elongation of 20:4n-6 to 22:4,[7]; product 22:4n-6,39%
same,Percent Elongation of 20:4n-6 to 24:4,[7]; product 24:4n-6,1%
same,Percent Elongation of 18:3n-3 to 20:3,[8],16%
same,Percent Elongation of 20:5n-3 to 22:5,[9],59%
